# Reference: article PMC5218480 (PLoS ONE, 2017)
# System: MV-4-11 cells
# Experiment: Gene expression microarray analysis (Affymetrix PrimeView) and GSEA
# Format: cell-based, human
# Set-up: RFU PODN (11730768_x_at) / Fold change /veh PODN (11730768_x_at) / RFU LINC00158 (11744669_a_at) / Fold change /veh LINC00158 (11744669_a_at) / RFU DUSP10 (11751237_a_at) / Fold change /veh DUSP10 (11751237_a_at) / RFU ID3 (11757404_x_at) / Fold change /veh ID3 (11757404_x_at) / RFU PLEKHG5 (11737974_s_at) / Fold change /veh PLEKHG5 (11737974_s_at) / RFU LRRC4B (11730491_at) / Fold change /veh LRRC4B (11730491_at) / RFU GIMAP4 (11747438_a_at) / Fold change /veh GIMAP4 (11747438_a_at) / RFU KRT8 (11758183_x_at) / Fold change /veh KRT8 (11758183_x_at) / RFU CNN1 (11734310_a_at) / Fold change /veh CNN1 (11734310_a_at) / RFU VPS37D (11726825_at) / Fold change /veh VPS37D (11726825_at) / RFU C10orf10 (11716522_x_at) / Fold change /veh C10orf10 (11716522_x_at) / RFU KIR2DL2 /// KIR2DL4 /// KIR2DL5A /// KIR2DL5B /// KIR2DS1 /// KIR2DS2 /// KIR2DS3 /// KIR2DS4 /// KIR3DL3 /// KIR3DL3 /// KIR3DS1 (11738374_at) / Fold change /veh KIR2DL2 /// KIR2DL4 /// KIR2DL5A /// KIR2DL5B /// KIR2DS1 /// KIR2DS2 /// KIR2DS3 /// KIR2DS4 /// KIR3DL3 /// KIR3DL3 /// KIR3DS1 (11738374_at) / RFU C1QL1 (11718748_at) / Fold change /veh C1QL1 (11718748_at) / RFU TMPRSS4 (11747572_a_at) / Fold change /veh TMPRSS4 (11747572_a_at) / RFU HAMP (11756126_x_at) / Fold change /veh HAMP (11756126_x_at) / RFU RNFT2 (11725882_a_at) / Fold change /veh RNFT2 (11725882_a_at) / RFU NR4A2 (11747474_a_at) / Fold change /veh NR4A2 (11747474_a_at) / RFU ABCC12 (11746883_a_at) / Fold change /veh ABCC12 (11746883_a_at) / RFU TMEM136 (11760407_x_at) / Fold change /veh TMEM136 (11760407_x_at) / RFU CLDN22 /// WWC2 (11732394_at) / Fold change /veh CLDN22 /// WWC2 (11732394_at) / RFU HLA-DPB1 (11760878_x_at) / Fold change /veh HLA-DPB1 (11760878_x_at) / RFU SPINT1 (11716480_a_at) / Fold change /veh SPINT1 (11716480_a_at) / RFU GAP43 (11754022_s_at) / Fold change /veh GAP43 (11754022_s_at) / RFU A4GNT (11735810_at) / Fold change /veh A4GNT (11735810_at) / RFU PRB3 (11715151_x_at) / Fold change /veh PRB3 (11715151_x_at) / RFU TUBB4B (11761932_at) / Fold change /veh TUBB4B (11761932_at) / RFU CAPN14 (11732068_a_at) / Fold change /veh CAPN14 (11732068_a_at) / RFU TMCC2 (11721928_a_at) / Fold change /veh TMCC2 (11721928_a_at) / RFU IRGQ (11745062_a_at) / Fold change /veh IRGQ (11745062_a_at) / RFU FAM174B (11720279_a_at) / Fold change /veh FAM174B (11720279_a_at) / RFU TMPRSS4 (11748680_a_at) / Fold change /veh TMPRSS4 (11748680_a_at) / RFU FAM212B (11763350_a_at) / Fold change /veh FAM212B (11763350_a_at) / RFU PLEKHG5 (11743358_a_at) / Fold change /veh PLEKHG5 (11743358_a_at) / RFU ZSCAN30 (11745921_a_at) / Fold change /veh ZSCAN30 (11745921_a_at) / RFU CMKLR1 (11741424_a_at) / Fold change /veh CMKLR1 (11741424_a_at) / RFU LOC101060620 /// MAPK8IP1 (11723275_at) / Fold change /veh LOC101060620 /// MAPK8IP1 (11723275_at) / RFU SPTSSB (11747773_x_at) / Fold change /veh SPTSSB (11747773_x_at) / RFU PRSS12 (11739890_at) / Fold change /veh PRSS12 (11739890_at) / RFU BIN1 (11741810_x_at) / Fold change /veh BIN1 (11741810_x_at) / RFU WNT11 (11732464_a_at) / Fold change /veh WNT11 (11732464_a_at) / RFU C10orf10 (11716521_a_at) / Fold change /veh C10orf10 (11716521_a_at) / RFU C5orf56 (11738089_at) / Fold change /veh C5orf56 (11738089_at) / RFU CYB561 (11721691_x_at) / Fold change /veh CYB561 (11721691_x_at) / RFU ANKRD19P (11752326_a_at) / Fold change /veh ANKRD19P (11752326_a_at) / RFU OR2T12 /// OR2T33 /// OR2T8 (11738714_s_at) / Fold change /veh OR2T12 /// OR2T33 /// OR2T8 (11738714_s_at) / RFU VCAN (11748164_a_at) / Fold change /veh VCAN (11748164_a_at) / RFU JSRP1 (11732532_at) / Fold change /veh JSRP1 (11732532_at) / RFU KRTAP10-11 (11738290_x_at) / Fold change /veh KRTAP10-11 (11738290_x_at) / RFU MYO3A (11730013_a_at) / Fold change /veh MYO3A (11730013_a_at) / RFU EBF3 (11725865_a_at) / Fold change /veh EBF3 (11725865_a_at) / RFU CAMK2N1 (11719241_x_at) / Fold change /veh CAMK2N1 (11719241_x_at) / RFU C5orf56 (11738088_a_at) / Fold change /veh C5orf56 (11738088_a_at) / RFU OLFML3 (11715873_a_at) / Fold change /veh OLFML3 (11715873_a_at) / RFU LOC100653217 /// NTM (11731650_a_at) / Fold change /veh LOC100653217 /// NTM (11731650_a_at) / RFU MAPK11 (11762145_a_at) / Fold change /veh MAPK11 (11762145_a_at) / RFU FIZ1 (11724087_x_at) / Fold change /veh FIZ1 (11724087_x_at) / RFU OASL (11726364_x_at) / Fold change /veh OASL (11726364_x_at) / RFU SOX15 (11748057_x_at) / Fold change /veh SOX15 (11748057_x_at) / RFU CD79A (11719716_a_at) / Fold change /veh CD79A (11719716_a_at) / RFU HIST1H1D (11736915_at) / Fold change /veh HIST1H1D (11736915_at) / RFU CASKIN2 (11723855_a_at) / Fold change /veh CASKIN2 (11723855_a_at) / RFU LOC730098 (11760151_x_at) / Fold change /veh LOC730098 (11760151_x_at) / RFU OR4N2 (11742367_at) / Fold change /veh OR4N2 (11742367_at) / RFU PRRT2 (11749266_a_at) / Fold change /veh PRRT2 (11749266_a_at) / RFU SNX32 (11753110_a_at) / Fold change /veh SNX32 (11753110_a_at) / RFU CDHR5 (11726645_a_at) / Fold change /veh CDHR5 (11726645_a_at) / RFU RCAN1 (11760418_a_at) / Fold change /veh RCAN1 (11760418_a_at) / RFU FAM167A (11723789_a_at) / Fold change /veh FAM167A (11723789_a_at) / RFU FAM26E (11764081_at) / Fold change /veh FAM26E (11764081_at) / RFU ISYNA1 (11749810_s_at) / Fold change /veh ISYNA1 (11749810_s_at) / RFU ACY1 (11761880_at) / Fold change /veh ACY1 (11761880_at) / RFU 11764098_at / Fold change /veh 11764098_at / RFU SAMD14 (11745864_x_at) / Fold change /veh SAMD14 (11745864_x_at) / RFU NPB (11741838_a_at) / Fold change /veh NPB (11741838_a_at) / RFU TMPRSS6 (11731388_a_at) / Fold change /veh TMPRSS6 (11731388_a_at) / RFU KRTAP10-2 (11738614_at) / Fold change /veh KRTAP10-2 (11738614_at) / RFU ARHGAP8 /// PRR5-ARHGAP8 (11727945_x_at) / Fold change /veh ARHGAP8 /// PRR5-ARHGAP8 (11727945_x_at) / RFU KRTAP5-7 /// NADSYN1 (11734609_at) / Fold change /veh KRTAP5-7 /// NADSYN1 (11734609_at) / RFU RASL12 (11751679_a_at) / Fold change /veh RASL12 (11751679_a_at) / RFU CDKN2B (11736163_a_at) / Fold change /veh CDKN2B (11736163_a_at) / RFU PRF1 (11729649_at) / Fold change /veh PRF1 (11729649_at) / RFU, ZNF638 /// ZNF638-IT1 / Fold change vs veh, ZNF638 /// ZNF638-IT1 / RFU, PANK3 / Fold change vs veh, PANK3 / RFU, SH3YL1 / Fold change vs veh, SH3YL1 / RFU, ZEB2 / Fold change vs veh, ZEB2 / RFU, NRIP1 / Fold change vs veh, NRIP1 / RFU, PTTG1IP / Fold change vs veh, PTTG1IP / RFU, CAPN2 / Fold change vs veh, CAPN2 / RFU, MED14 / Fold change vs veh, MED14 / RFU, SNORA58 / Fold change vs veh, SNORA58 / RFU, C1orf63 / Fold change vs veh, C1orf63 / RFU, LRRFIP1 / Fold change vs veh, LRRFIP1 / RFU, NDUFAF7 / Fold change vs veh, NDUFAF7 / RFU, SLC12A2 / Fold change vs veh, SLC12A2 / RFU, IBTK / Fold change vs veh, IBTK / RFU, ESF1 / Fold change vs veh, ESF1 / Fold change vs veh, TMEM50B / RFU, TAOK1 / Fold change vs veh, TAOK1 / RFU, ACBD3 / Fold change vs veh, ACBD3 / RFU, TMA16 / Fold change vs veh, TMA16 / RFU, RWDD3 / Fold change vs veh, RWDD3 / RFU, BCAT1 / Fold change vs veh, BCAT1 / RFU, EDEM3 / Fold change vs veh, EDEM3 / RFU, TMEM33 / Fold change vs veh, TMEM33 / RFU, WDR75 / Fold change vs veh, WDR75 / RFU, AHCTF1 / Fold change vs veh, AHCTF1 / RFU, TFRC / Fold change vs veh, TFRC / RFU, ZDHHC17 / Fold change vs veh, ZDHHC17 / RFU, NOM1 / Fold change vs veh, NOM1 / RFU, ARL8B / Fold change vs veh, ARL8B / RFU, ZBTB11 / Fold change vs veh, ZBTB11 / RFU, TAMM41 / Fold change vs veh, TAMM41 / RFU, KIAA1704 /// LOC100996395 / Fold change vs veh, KIAA1704 /// LOC100996395 / RFU, ING1 / Fold change vs veh, ING1 / RFU, TRMT61B / Fold change vs veh, TRMT61B / RFU, FUBP3 / Fold change vs veh, FUBP3 / RFU, TP53 / Fold change vs veh, TP53 / RFU, TNKS2 / Fold change vs veh, TNKS2 / RFU, ZFP14 / Fold change vs veh, ZFP14 / RFU, ACTR2 / Fold change vs veh, ACTR2 / RFU, PPP3R1 / Fold change vs veh, PPP3R1 / RFU, PIK3R1 / Fold change vs veh, PIK3R1 / RFU, HNRNPA1 / Fold change vs veh, HNRNPA1 / RFU, RNF170 / Fold change vs veh, RNF170 / RFU, ZNF28 / Fold change vs veh, ZNF28 / RFU, RNGTT / Fold change vs veh, RNGTT / RFU, OGT / Fold change vs veh, OGT / RFU, BRD1 / Fold change vs veh, BRD1 / RFU, MARS / Fold change vs veh, MARS / RFU, ZNF655 / Fold change vs veh, ZNF655 / RFU, FAHD1 / Fold change vs veh, FAHD1 / RFU, BDP1 / Fold change vs veh, BDP1 / RFU, LRRCC1 / Fold change vs veh, LRRCC1 / RFU, ARID1A / Fold change vs veh, ARID1A / RFU, ZNF146 / Fold change vs veh, ZNF146 / RFU, ZNF330 / Fold change vs veh, ZNF330 / RFU, GPN3 / Fold change vs veh, GPN3 / RFU, C9orf123 / Fold change vs veh, C9orf123 / RFU, N4BP2L2 / Fold change vs veh, N4BP2L2 / RFU, ARFIP1 / Fold change vs veh, ARFIP1 / RFU, FAM179B / Fold change vs veh, FAM179B / RFU, BCL10 / Fold change vs veh, BCL10 / RFU, UHRF1BP1L / Fold change vs veh, UHRF1BP1L / RFU, BET1 / Fold change vs veh, BET1 / RFU, CNOT2 / Fold change vs veh, CNOT2 / RFU, ZNF268 / Fold change vs veh, ZNF268 / Fold change vs veh, ZNF507 / RFU, DGCR2 / Fold change vs veh, DGCR2 / RFU, WDSUB1 / Fold change vs veh, WDSUB1 / Fold change vs veh, HSP90B1 /// MIR3652 / RFU, ADSS / Fold change vs veh, ADSS / RFU, GK / Fold change vs veh, GK / RFU, ZNF148 / Fold change vs veh, ZNF148 / RFU, TAF9 / Fold change vs veh, TAF9 / RFU, SLC1A5 / Fold change vs veh, SLC1A5 / RFU, SLMO2 / Fold change vs veh, SLMO2 / RFU, ABCC4 / Fold change vs veh, ABCC4 / RFU, LOC101060439 /// RAP1B / Fold change vs veh, LOC101060439 /// RAP1B / RFU, RFX7 / Fold change vs veh, RFX7 / RFU, GTPBP10 / Fold change vs veh, GTPBP10 / RFU, CNEP1R1 / Fold change vs veh, CNEP1R1 / RFU, BIVM-ERCC5 /// ERCC5 / Fold change vs veh, BIVM-ERCC5 /// ERCC5 / RFU, ILF3 / Fold change vs veh, ILF3 / RFU 11762660_at / Fold change /veh 11762660_at / RFU VCAN (11757783_s_at) / Fold change /veh VCAN (11757783_s_at) / RFU DDX43 (11728927_at) / Fold change /veh DDX43 (11728927_at) / RFU KRT8 (11758188_x_at) / Fold change /veh KRT8 (11758188_x_at) / RFU NKD1 (11759106_at) / Fold change /veh NKD1 (11759106_at) / RFU SRD5A1 (11742802_a_at) / Fold change /veh SRD5A1 (11742802_a_at) / RFU TPSAB1 /// TPSB2 (11721975_s_at) / Fold change /veh TPSAB1 /// TPSB2 (11721975_s_at) / RFU GSTM3 (11746129_a_at) / Fold change /veh GSTM3 (11746129_a_at) / RFU IL23R (11737362_x_at) / Fold change /veh IL23R (11737362_x_at) / RFU TMEM51 (11727254_a_at) / Fold change /veh TMEM51 (11727254_a_at) / RFU PIWIL2 (11732686_x_at) / Fold change /veh PIWIL2 (11732686_x_at) / RFU ORM1 (11744905_x_at) / Fold change /veh ORM1 (11744905_x_at) / RFU CCDC152 (11743942_at) / Fold change /veh CCDC152 (11743942_at) / RFU ECM1 (11717891_a_at) / Fold change /veh ECM1 (11717891_a_at) / RFU IL23R (11748794_a_at) / Fold change /veh IL23R (11748794_a_at) / RFU TNFAIP8L3 (11732012_x_at) / Fold change /veh TNFAIP8L3 (11732012_x_at) / RFU MBOAT4 (11741988_at) / Fold change /veh MBOAT4 (11741988_at) / RFU 11764193_at / Fold change /veh 11764193_at / RFU TMEM53 (11763286_at) / Fold change /veh TMEM53 (11763286_at) / RFU MAGEB2 (11727129_at) / Fold change /veh MAGEB2 (11727129_at) / RFU TMEM200A (11744735_a_at) / Fold change /veh TMEM200A (11744735_a_at) / RFU CCDC152 (11751479_a_at) / Fold change /veh CCDC152 (11751479_a_at) / RFU FAM211A (11726209_a_at) / Fold change /veh FAM211A (11726209_a_at) / RFU RGS16 (11746705_a_at) / Fold change /veh RGS16 (11746705_a_at) / RFU VCAN (11755009_s_at) / Fold change /veh VCAN (11755009_s_at) / RFU RHOB (11743442_s_at) / Fold change /veh RHOB (11743442_s_at) / RFU RGS16 (11720943_a_at) / Fold change /veh RGS16 (11720943_a_at) / RFU RGS16 (11720944_at) / Fold change /veh RGS16 (11720944_at) / RFU, VPS4B / Fold change vs veh, VPS4B / RFU, CREB1 / Fold change vs veh, CREB1 / RFU, DNAJC13 / Fold change vs veh, DNAJC13 / RFU, GNAQ / Fold change vs veh, GNAQ / RFU, CDK5R1 / Fold change vs veh, CDK5R1 / RFU, ZRANB3 / Fold change vs veh, ZRANB3 / RFU, CUL4A / Fold change vs veh, CUL4A / RFU, CCNY / Fold change vs veh, CCNY / RFU, UFL1 / Fold change vs veh, UFL1 / RFU, COG3 / Fold change vs veh, COG3 / RFU, DIAPH2 / Fold change vs veh, DIAPH2 / RFU, SKA2 / Fold change vs veh, SKA2 / RFU, AFF3 / Fold change vs veh, AFF3 / RFU, LMF1 / Fold change vs veh, LMF1 / RFU, IPO11 / Fold change vs veh, IPO11 / RFU, DFFB / Fold change vs veh, DFFB / RFU, FOXP1 / Fold change vs veh, FOXP1 / RFU, CARD8 / Fold change vs veh, CARD8 / RFU, STRN3 / Fold change vs veh, STRN3 / RFU, ADK / Fold change vs veh, ADK / RFU, RASSF2 / Fold change vs veh, RASSF2 / RFU, WIPF1 / Fold change vs veh, WIPF1 / RFU, LARP1B / Fold change vs veh, LARP1B / RFU, RASA1 / Fold change vs veh, RASA1 / RFU, RB1 / Fold change vs veh, RB1 / RFU, PPFIA1 / Fold change vs veh, PPFIA1 / RFU, MAT2A / Fold change vs veh, MAT2A / RFU, CCT5 / Fold change vs veh, CCT5 / RFU, WDR92 / Fold change vs veh, WDR92 / RFU, CUX1 / Fold change vs veh, CUX1 / RFU, TTC7A / Fold change vs veh, TTC7A / RFU, TMEM135 / Fold change vs veh, TMEM135 / RFU, DEPTOR / Fold change vs veh, DEPTOR / RFU, CPM / Fold change vs veh, CPM / RFU, DNAJB6 / Fold change vs veh, DNAJB6 / RFU, CACNA2D3 / Fold change vs veh, CACNA2D3 / RFU, DTX4 / Fold change vs veh, DTX4 / RFU, TFCP2 / Fold change vs veh, TFCP2 / RFU, GMCL1 /// GMCL1P1 / Fold change vs veh, GMCL1 /// GMCL1P1 / RFU, AEBP2 / Fold change vs veh, AEBP2 / RFU, SNHG1 /// SNORD22 /// SNORD25 /// SNORD26 /// SNORD27 /// SNORD28 /// SNORD29 /// SNORD31 / Fold change vs veh, SNHG1 /// SNORD22 /// SNORD25 /// SNORD26 /// SNORD27 /// SNORD28 /// SNORD29 /// SNORD31 / Fold change (Aza/veh), C12orf56 (ProbeSet 11735607_a_at) / Fold change (ACY-1035/veh), C12orf56 (ProbeSet 11735607_a_at) / Fold change (Aza/veh), FGFR1OP (ProbeSet 11751329_s_at) / Fold change (ACY-1035/veh), FGFR1OP (ProbeSet 11751329_s_at) / Fold change (Aza/veh), VPS36 (ProbeSet 11739960_a_at) / Fold change (ACY-1035/veh), VPS36 (ProbeSet 11739960_a_at) / RFU SYPL1 (11715823_x_at) / Fold change /veh SYPL1 (11715823_x_at) / RFU IGFBP7 (11715501_s_at) / Fold change /veh IGFBP7 (11715501_s_at) / RFU REEP3 (11722064_at) / Fold change /veh REEP3 (11722064_at) / RFU IGLL1 (11728026_x_at) / Fold change /veh IGLL1 (11728026_x_at): dose or concentration left out as unconfirmed
# Details: MV-4-11 cells, 48 hours
compound,measurement,value
Nc1ncn([C@@H]2O[C@H](CO)[C@@H](O)[C@H]2O)c(=O)n1 [azacitidine],RFU TMPRSS4 (11747572_a_at),53.17 RFU
